Like-named read-outs stand apart in the source and are kept apart here.
Assays:
Assay type in all cases: cell-based
TNFα secretion = TNFα secretion assay (ELISA), phorbol 12-myristate 13-acetate/ionomycin stimulated white blood cells; settings: Homo sapiens, PBMC, read-out: % Inhibition TNFα PBMC PI
Procedure: (§1) The compound dilution matrix was assayed for the suppression of phorbol 12-myristate 13 acetate/ionomycin stimulated IL-1 and TNFα secretion as well as the suppression of lipopolysaccharide-stimulated TNFα secretion from human white blood cells using the ELISA method, as described below.
(§2) A stock solution containing prednisolone (0.36 mg/ml) was prepared in DMSO. A stock solution containing ibudilast (1.84 mg/ml) was prepared in DMSO. Master plates were prepared for dilutions of the stock solutions above.
(§3) The final single agent plates were generated by transferring 1 μL of stock solution from the specific master plate to separate dilution plates containing 99 μL of media (RPMI; Gibco BRL, #11875-085), 10% fetal bovine serum (Gibco BRL, #25140-097), 2% penicillin/streptomycin (Gibco BRL, #15140-122)) using the Packard Mini-Trak liquid handler. The dilution plates were then mixed and a 10 μL aliquot transferred from each dilution plate to the final assay plate (polystyrene 384-well plate (NalgeNunc)), which had been pre-filled with 30 μL/well RPMI media containing 33 ng/mL phorbol 12-myristate 13-acetate (Sigma, P-1585) and 2.475 ng/mL ionomycin (Sigma, I-0634) or alternatively for the LPS stimulated assay RPMI media containing 2 μg/ml lipopolysaccharide (Sigma, L-4130).
The effects of test compound combinations on TNFα secretion were assayed in white blood cells from human buffy coat stimulated with phorbol 12-myistate 13-acetate, or lipopolysaccharide as follows. Human white blood cells from buffy coat were diluted 1:50 in media (RPMI; Gibco BRL, #11875-085), 10% fetal bovine serum (Gibco BRL, #25140-097), 2% penicillin/streptomycin (Gibco BRL, #15140-122)) and 50 μL of the diluted white blood cells were placed in each well of the final assay plate created in the above section. After 16-18 hours of incubation at 37° C. with 5% CO2 in a humidified incubator, the plate was centrifuged and the supernatant transferred to a white opaque polystyrene 384 well plate (NalgeNunc, Maxisorb) coated with an anti-TNFα antibody (PharMingen, #551220). After a two-hour incubation, the plate was washed (Tecan Powerwasher 384) with PBS containing 0.1% Tween 20 and incubated for one additional hour with biotin labeled anti-TNFα antibody (PharMingen, #554511) and HRP coupled to streptavidin (PharMingen, #13047E). The plate was then washed again with 0.1% Tween 20/PBS. An HRP-luminescent substrate was added to each well, and the light intensity of each well was measured using a plate luminometer.
(§4) The percent inhibition (% I) for each well was calculated using the following formula: % I=[(avg. untreated wells−treated well)/(avg. untreated wells)]×100
(§5) The average untreated well value (avg. untreated wells) is the arithmetic mean of 30 wells from the same assay plate treated with vehicle alone.
TNFα secretion was measured by ELISA as described above after stimulation with phorbol 12-myristate 13-acetate and ionomycin. The effects of varying concentrations of ibudilast, prednisolone and a combination of ibudilast and prednisolone were compared to control wells.

[1] = system: white blood cells from human buffy coat; test: alamarBlue assay (toxicity/cell viability), PMA/ionomycin stimulated; settings: PBMC, read-out: % Inhibition of Proliferation of PBMC PI
Procedure: as §2, §3, §4, §5
The toxicity of the test combination were assessed using alamarBlue® assayed in white blood cells from human buffy coat stimulated with LPS or phorbol 12-myistate 13-acetate and Ionomycin, as follows. Human white blood cells from buffy coat were diluted 1:50 in media (RPMI; Gibco BRL, #11875-085), 10% fetal bovine serum (Gibco BRL, #25140-097), 2% penicillin/streptomycin (Gibco BRL, #15140-122)) and 50 μL of the diluted white blood cells was placed in each well of the final assay plate created in the above section. After 16-18 hours of incubation at 37° C. with 5% CO2 in a humidified incubator, 5 μl of alamarBlue® (BioSource Intl. Inc., DAL 1100) was added to all of the wells. After 20-24 hours of incubation in 37° C. in a humidified incubator, fluorescence was then measured using a plate fluorometer.
Cell viability was measured using the alamarBlue® assay described above after stimulation with phorbol 12-myristate 13-acetate and ionomycin. The effects of varying concentrations of ibudilast, prednisolone and a combination of ibudilast and prednisolone were compared to control wells.

IL-1 secretion = IL-1 secretion assay (ELISA), LPS stimulated white blood cells; settings: Homo sapiens, PBMC
Procedure: as §1, §2, §3
The effects of test compound combinations on IL-1 secretion were assayed in white blood cells from human buffy coat stimulated with LPS, as follows. Human white blood cells from buffy coat were diluted 1:50 in media (RPMI; Gibco BRL, #11875-085), 10% fetal bovine serum (Gibco BRL, #25140-097), 2% penicillin/streptomycin (Gibco BRL, #15140-122)) and 50 μL of the diluted white blood cells was placed in each well of the final assay plate created in the above section. After 16-18 hours of incubation at 37° C. in a humidified incubator, the plate was centrifuged and the supernatant was transferred to a white opaque 384-well plate (NalgeNunc, MAXISORB) coated with an anti-IL-1 antibody (R&D Systems, MAB601). After a two-hour incubation, the plate was washed (Tecan Powerwasher 384) with PBS containing 0.1% Tween 20 and incubated for an additional one hour with a biotin labeled anti-IL-1 antibody (R&D Systems, BAF201) and horse radish peroxidase coupled to streptavidin (PharMingen, #554066). The plate was then washed again with 0.1% Tween 20/PBS, and an HRP-luminescent substrate was added to each well. Light intensity was then measured using a plate luminometer.
as §4, §5
IL-1 secretion was measured by ELISA as described above after stimulation with lipopolysaccharide. The effects of varying concentrations of ibudilast, prednisolone and a combination of ibudilast and prednisolone were compared to control wells.

C[C@]12C=CC(=O)C=C1CC[C@@H]1[C@@H]2[C@@H](O)C[C@@]2(C)[C@H]1CC[C@]2(O)C(=O)CO [Prednisolone, prednisolone]
inhibition at 0.0078 µM (TNFα secretion; prednisolone 0.0078 μM alone): 12% | inhibition at 0.016 µM (TNFα secretion; prednisolone 0.016 μM alone): 17% | inhibition at 0.031 µM (TNFα secretion; prednisolone 0.031 μM alone): 22% | inhibition at 0.062 µM (TNFα secretion; prednisolone 0.062 μM alone): 22% | inhibition at 0.12 µM (TNFα secretion; prednisolone 0.12 μM alone): 29% | inhibition at 0.25 µM (TNFα secretion; prednisolone 0.25 μM alone): 32% | inhibition at 0.5 µM (TNFα secretion; prednisolone 0.5 μM alone): 33% | inhibition at 1 µM (TNFα secretion; prednisolone 1 μM alone): 36% | inhibition at 0.0078 µM ([1]; prednisolone 0.0078 μM alone): 4% | inhibition at 0.016 µM ([1]; prednisolone 0.016 μM alone): 1% | inhibition at 0.031 µM ([1]; prednisolone 0.031 μM alone): 1.7% | inhibition at 0.062 µM ([1]; prednisolone 0.062 μM alone): -1.7% | inhibition at 0.12 µM ([1]; prednisolone 0.12 μM alone): 3.2% | inhibition at 0.25 µM ([1]; prednisolone 0.25 μM alone): 4.6% | inhibition at 0.5 µM ([1]; prednisolone 0.5 μM alone): 0.19% | inhibition at 1 µM ([1]; prednisolone 1 μM alone): 3.1% | inhibition at 0.0078 µM (IL-1 secretion; prednisolone 0.0078 μM alone): 18% | inhibition at 0.016 µM (IL-1 secretion; prednisolone 0.016 μM alone): 25% | inhibition at 0.031 µM (IL-1 secretion; prednisolone 0.031 μM alone): 50% | inhibition at 0.062 µM (IL-1 secretion; prednisolone 0.062 μM alone): 69% | inhibition at 0.12 µM (IL-1 secretion; prednisolone 0.12 μM alone): 70% | inhibition at 0.25 µM (IL-1 secretion; prednisolone 0.25 μM alone): 74% | inhibition at 0.5 µM (IL-1 secretion; prednisolone 0.5 μM alone): 77% | inhibition at 1 µM (IL-1 secretion; prednisolone 1 μM alone): 84%

CC(C)C(=O)c1c(C(C)C)nn2ccccc12 [Ibudilast, ibudilast]
inhibition at 0.062 µM (TNFα secretion; ibudilast 0.062 μM alone): 2.8% | inhibition at 0.12 µM (TNFα secretion; ibudilast 0.12 μM alone): 2.5% | inhibition at 0.25 µM (TNFα secretion; ibudilast 0.25 μM alone): 6.5% | inhibition at 0.5 µM (TNFα secretion; ibudilast 0.5 μM alone): 18% | inhibition at 1 µM (TNFα secretion; ibudilast 1 μM alone): 28% | inhibition at 2 µM (TNFα secretion; ibudilast 2 μM alone): 31% | inhibition at 4 µM (TNFα secretion; ibudilast 4 μM alone): 33% | inhibition at 8 µM (TNFα secretion; ibudilast 8 μM alone): 40% | inhibition at 0.062 µM ([1]; ibudilast 0.062 μM alone): -1.5% | inhibition at 0.12 µM ([1]; ibudilast 0.12 μM alone): -5.1% | inhibition at 0.25 µM ([1]; ibudilast 0.25 μM alone): 0.84% | inhibition at 0.5 µM ([1]; ibudilast 0.5 μM alone): -4% | inhibition at 1 µM ([1]; ibudilast 1 μM alone): -1.9% | inhibition at 2 µM ([1]; ibudilast 2 μM alone): 2.7% | inhibition at 4 µM ([1]; ibudilast 4 μM alone): 3.3% | inhibition at 8 µM ([1]; ibudilast 8 μM alone): 6.9% | inhibition at 0.062 µM (IL-1 secretion; ibudilast 0.062 μM alone): 19% | inhibition at 0.12 µM (IL-1 secretion; ibudilast 0.12 μM alone): -1.6% | inhibition at 0.25 µM (IL-1 secretion; ibudilast 0.25 μM alone): 20% | inhibition at 0.5 µM (IL-1 secretion; ibudilast 0.5 μM alone): 18% | inhibition at 1 µM (IL-1 secretion; ibudilast 1 μM alone): 41% | inhibition at 2 µM (IL-1 secretion; ibudilast 2 μM alone): 42% | inhibition at 4 µM (IL-1 secretion; ibudilast 4 μM alone): 50% | inhibition at 8 µM (IL-1 secretion; ibudilast 8 μM alone): 61%
